# Patent US6203822A, “Gallium-containing compounds for the treatment of infections caused by intracellular pathogens and pathogens causing chronic pulmonary infection” (priority 1996, dated 2001)
# Test system: MDR-TB patient isolate (resistant to isoniazid and rifampin)
# Assay type: cell-based, M. tuberculosis
# Conditions: gallium about 0 to about 500 μM
structure (smiles),measurement,value
O=[N+]([O-])[O-].O=[N+]([O-])[O-].O=[N+]([O-])[O-].[Ga+3] [gallium nitrate],activity against MDR M. tuberculosis strain,retained full activity
